Test results taken from PubChem BioAssay AID256 (DTP/NCI, 2004).
Where “and” joins values, the source holds several entries; their conditions need not be identical. Equal entries are not always repeated. Toxic doses and inconclusive results are not listed.

System: CD2F1 mice, L1210 leukemia ip, survival T/C
Assay: NCI In Vivo Anticancer Drug Screen. Data for tumor model L1210 Leukemia (intraperitoneal) in CD2F1 (CDF1) mice
Conditions: higher = longer survival
Method in brief: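 In this screen, transplantable tumors were grown in mice given either the compound or its vehicle. Results were expressed as the treated measurement relative to the control measurement.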

O=c1n(CC2CO2)c(=O)n(CC2CO2)c(=O)n1CC1CO1 (stereo unspecified)
T/C (endpoint: mean survival time, dose: 6.25 mg/kg/injection, schedule: Q01DX009 (ip), vehicle: suspension in saline): 206 % of control and 123 % of control | T/C (endpoint: mean survival time, dose: 12.5 mg/kg/injection, schedule: Q01DX009 (ip), vehicle: saline with Tween-80): 166 % of control and 157 % of control | T/C (endpoint: mean survival time, dose: 12.5 mg/kg/injection, schedule: Q01DX009 (ip), vehicle: suspension in saline): 162 % of control | T/C (endpoint: mean survival time, dose: 20.0 mg/kg/injection, schedule: Q01DX009 (ip), vehicle: saline): 178 % of control | T/C (endpoint: mean survival time, dose: 25.0 mg/kg/injection, schedule: Q01DX009 (ip), vehicle: saline with Tween-80): 291 % of control | T/C (endpoint: mean survival time, dose: 25.0 mg/kg/injection, schedule: Q01DX009 (ip), vehicle: saline): 151 % of control and 177 % of control and 158 % of control | T/C (endpoint: mean survival time, dose: 25.0 mg/kg/injection, schedule: Q01DX009 (ip), vehicle: suspension in saline): 276 % of control and 152 % of control | T/C (endpoint: mean survival time, dose: 25.0 mg/kg/injection, schedule: Q04DX003 (ip), vehicle: saline): 182 % of control | T/C (endpoint: mean survival time, dose: 25.0 mg/kg/injection, schedule: Q04DX005 (ip), vehicle: saline): 165 % of control | T/C (endpoint: mean survival time, dose: 30.0 mg/kg/injection, schedule: Q01DX009 (ip), vehicle: saline): 164 % of control | T/C (endpoint: mean survival time, dose: 30.0 mg/kg/injection, schedule: Q01DX010 (ip), vehicle: saline): 166 % of control | T/C (endpoint: mean survival time, dose: 40.0 mg/kg/injection, schedule: Q01DX009 (ip), vehicle: saline): 300 % of control and 109 % of control | T/C (endpoint: mean survival time, dose: 40.0 mg/kg/injection, schedule: Q01DX010 (ip), vehicle: saline): 195 % of control | T/C (endpoint: mean survival time, dose: 50.0 mg/kg/injection, schedule: Q01DX001 (ip), vehicle: saline): 160 % of control and 205 % of control | T/C (endpoint: mean survival time, dose: 50.0 mg/kg/injection, schedule: Q01DX009 (ip), vehicle: saline with Tween-80): 170 % of control | T/C (endpoint: mean survival time, dose: 50.0 mg/kg/injection, schedule: Q01DX009 (ip), vehicle: saline): 151 % of control | T/C (endpoint: mean survival time, dose: 50.0 mg/kg/injection, schedule: Q01DX009 (ip), vehicle: suspension in saline): 94 % of control | T/C (endpoint: mean survival time, dose: 50.0 mg/kg/injection, schedule: Q01DX010 (ip), vehicle: saline): 219 % of control | T/C (endpoint: mean survival time, dose: 50.0 mg/kg/injection, schedule: Q04DX003 (ip), vehicle: saline): 187 % of control | T/C (endpoint: mean survival time, dose: 50.0 mg/kg/injection, schedule: Q04DX005 (ip), vehicle: saline): 259 % of control and 340 % of control | T/C (endpoint: mean survival time, dose: 60.0 mg/kg/injection, schedule: Q01DX001 (ip), vehicle: saline): 168 % of control and 202 % of control | T/C (endpoint: mean survival time, dose: 60.0 mg/kg/injection, schedule: Q01DX009 (ip), vehicle: saline): 467 % of control | T/C (endpoint: mean survival time, dose: 70.0 mg/kg/injection, schedule: Q01DX001 (ip), vehicle: saline): 291 % of control | T/C (endpoint: mean survival time, dose: 75.0 mg/kg/injection, schedule: Q01DX009 (ip), vehicle: saline): 91 % of control | T/C (endpoint: mean survival time, dose: 75.0 mg/kg/injection, schedule: Q04DX003 (ip), vehicle: saline): 154 % of control | T/C (endpoint: mean survival time, dose: 75.0 mg/kg/injection, schedule: Q04DX005 (ip), vehicle: saline): 208 % of control and 581 % of control | T/C (endpoint: mean survival time, dose: 80.0 mg/kg/injection, schedule: Q01DX001 (ip), vehicle: saline): 202 % of control and 351 % of control | T/C (endpoint: mean survival time, dose: 80.0 mg/kg/injection, schedule: Q01DX009 (ip), vehicle: saline): 104 % of control | T/C (endpoint: median survival time, dose: 5.0 mg/kg/injection, schedule: Q03HX024 (ip), vehicle: saline): 167 % of control | T/C (endpoint: median survival time, dose: 10.0 mg/kg/injection, schedule: Q03HX008 (ip), vehicle: saline): 167 % of control | T/C (endpoint: median survival time, dose: 10.0 mg/kg/injection, schedule: Q03HX016 (ip), vehicle: saline): 176 % of control | T/C (endpoint: median survival time, dose: 10.0 mg/kg/injection, schedule: Q03HX024 (ip), vehicle: saline): 212 % of control | T/C (endpoint: median survival time, dose: 12.5 mg/kg/injection, schedule: Q01DX001 (ip), vehicle: saline): 121 % of control | T/C (endpoint: median survival time, dose: 12.5 mg/kg/injection, schedule: Q01DX001 (iv), vehicle: saline): 101 % of control | T/C (endpoint: median survival time, dose: 12.5 mg/kg/injection, schedule: Q01DX005 (ip), vehicle: saline): 150 % of control | T/C (endpoint: median survival time, dose: 12.5 mg/kg/injection, schedule: Q01DX005 (iv), vehicle: saline): 113 % of control | T/C (endpoint: median survival time, dose: 12.5 mg/kg/injection, schedule: Q01DX009 (oral), vehicle: saline): 105 % of control | T/C (endpoint: median survival time, dose: 20.0 mg/kg/injection, schedule: Q01DX009 (ip), vehicle: saline): 175 % of control | T/C (endpoint: median survival time, dose: 20.0 mg/kg/injection, schedule: Q03HX008 (ip), vehicle: saline): 637 % of control | T/C (endpoint: median survival time, dose: 20.0 mg/kg/injection, schedule: Q03HX016 (ip), vehicle: saline): 172 % of control | T/C (endpoint: median survival time, dose: 20.0 mg/kg/injection, schedule: Q03HX024 (ip), vehicle: saline): 116 % of control | T/C (endpoint: median survival time, dose: 25.0 mg/kg/injection, schedule: Q01DX001 (iv), vehicle: saline): 107 % of control | T/C (endpoint: median survival time, dose: 25.0 mg/kg/injection, schedule: Q01DX005 (ip), vehicle: saline): 380 % of control | T/C (endpoint: median survival time, dose: 25.0 mg/kg/injection, schedule: Q01DX009 (oral), vehicle: saline): 110 % of control | T/C (endpoint: median survival time, dose: 25.0 mg/kg/injection, schedule: Q04DX003 (ip), vehicle: saline): 167 % of control | T/C (endpoint: median survival time, dose: 40.0 mg/kg/injection, schedule: Q01DX005 (ip), vehicle: saline): 216 % of control | T/C (endpoint: median survival time, dose: 40.0 mg/kg/injection, schedule: Q01DX009 (ip), vehicle: saline): 253 % of control and 750 % of control | T/C (endpoint: median survival time, dose: 40.0 mg/kg/injection, schedule: Q03HX016 (ip), vehicle: saline): 160 % of control | T/C (endpoint: median survival time, dose: 50.0 mg/kg/injection, schedule: Q01DX001 (ip), vehicle: saline): 160 % of control and 166 % of control | T/C (endpoint: median survival time, dose: 50.0 mg/kg/injection, schedule: Q01DX005 (ip), vehicle: saline): 750 % of control | T/C (endpoint: median survival time, dose: 50.0 mg/kg/injection, schedule: Q01DX009 (ip), vehicle: saline): 750 % of control | T/C (endpoint: median survival time, dose: 50.0 mg/kg/injection, schedule: Q04DX003 (ip), vehicle: saline): 253 % of control | T/C (endpoint: median survival time, dose: 50.0 mg/kg/injection, schedule: Q04DX003 (oral), vehicle: saline): 116 % of control | T/C (endpoint: median survival time, dose: 50.0 mg/kg/injection, schedule: Q08DX002 (ip), vehicle: saline): 187 % of control | T/C (endpoint: median survival time, dose: 60.0 mg/kg/injection, schedule: Q01DX005 (ip), vehicle: saline): 275 % of control | T/C (endpoint: median survival time, dose: 60.0 mg/kg/injection, schedule: Q01DX009 (ip), vehicle: saline): 178 % of control | T/C (endpoint: median survival time, dose: 70.0 mg/kg/injection, schedule: Q01DX005 (ip), vehicle: saline): 110 % of control | T/C (endpoint: median survival time, dose: 100.0 mg/kg/injection, schedule: Q01DX001 (iv), vehicle: saline): 100 % of control | T/C (endpoint: median survival time, dose: 100.0 mg/kg/injection, schedule: Q01DX001 (oral), vehicle: saline): 123 % of control | T/C (endpoint: median survival time, dose: 100.0 mg/kg/injection, schedule: Q08DX002 (ip), vehicle: saline): 122 % of control | T/C (endpoint: median survival time, dose: 150.0 mg/kg/injection, schedule: Q01DX005 (oral), vehicle: saline): 116 % of control | T/C (endpoint: median survival time, dose: 200.0 mg/kg/injection, schedule: Q01DX009 (oral), vehicle: saline): 151 % of control | T/C (endpoint: median survival time, dose: 200.0 mg/kg/injection, schedule: Q04DX003 (oral), vehicle: saline): 191 % of control | T/C (endpoint: median survival time, dose: 200.0 mg/kg/injection, schedule: Q08DX002 (oral), vehicle: saline): 163 % of control | T/C (endpoint: median survival time, dose: 250.0 mg/kg/injection, schedule: Q01DX009 (oral), vehicle: saline): 151 % of control | T/C (endpoint: median survival time, dose: 250.0 mg/kg/injection, schedule: Q08DX002 (ip), vehicle: saline): 160 % of control | T/C (endpoint: median survival time, dose: 300.0 mg/kg/injection, schedule: Q04DX003 (oral), vehicle: saline): 221 % of control and 122 % of control | T/C (endpoint: median survival time, dose: 300.0 mg/kg/injection, schedule: Q08DX002 (oral), vehicle: saline): 185 % of control | T/C (endpoint: median survival time, dose: 350.0 mg/kg/injection, schedule: Q01DX001 (ip), vehicle: saline): 151 % of control | T/C (endpoint: median survival time, dose: 350.0 mg/kg/injection, schedule: Q04DX003 (oral), vehicle: saline): 122 % of control | T/C (endpoint: median survival time, dose: 350.0 mg/kg/injection, schedule: Q08DX002 (oral), vehicle: saline): 119 % of control | T/C (endpoint: median survival time, dose: 400.0 mg/kg/injection, schedule: Q04DX003 (oral), vehicle: saline): 120 % of control | T/C (endpoint: median survival time, dose: 450.0 mg/kg/injection, schedule: Q01DX001 (ip), vehicle: saline): 160 % of control | T/C (endpoint: median survival time, dose: 450.0 mg/kg/injection, schedule: Q04DX003 (oral), vehicle: saline): 118 % of control | T/C (endpoint: median survival time, dose: 450.0 mg/kg/injection, schedule: Q08DX002 (oral), vehicle: saline): 118 % of control | T/C (endpoint: median survival time, dose: 500.0 mg/kg/injection, schedule: Q08DX002 (oral), vehicle: saline): 123 % of control
